Usually pKi stands for the negative decadic logarithm of the Ki, by convention in mol/L. In general, pIC50 refers to the negative decadic logarithm of the IC50, by convention in mol/L. Read a low pIC50 as a large IC50.

We go through 13 compounds from patent US20090298866A1, “Indole Compounds” (priority 2006, published 2009).

pIC50, pKi: −log10 of the molar value. Counter-ions that a name gives are not always drawn.

For one experiment, the target named is T1, human EP3 receptor (Homo sapiens, UniProt P43115).
T1 construct: expressed in transfected cells; host or cells: CHO-K1
T1 sequence (P43115 1-390): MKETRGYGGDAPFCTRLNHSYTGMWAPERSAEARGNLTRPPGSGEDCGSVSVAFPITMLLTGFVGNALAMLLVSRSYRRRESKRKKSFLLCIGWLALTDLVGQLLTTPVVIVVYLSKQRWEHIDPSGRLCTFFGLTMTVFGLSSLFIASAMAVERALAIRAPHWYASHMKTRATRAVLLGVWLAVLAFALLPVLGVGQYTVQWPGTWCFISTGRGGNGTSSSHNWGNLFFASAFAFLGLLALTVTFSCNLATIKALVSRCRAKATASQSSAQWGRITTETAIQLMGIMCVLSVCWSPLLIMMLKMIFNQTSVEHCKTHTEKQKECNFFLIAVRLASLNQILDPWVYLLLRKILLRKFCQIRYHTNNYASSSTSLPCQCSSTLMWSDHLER
The experiment is described as follows: human EP3 calcium mobilisation assay. The format is cell-based. The conditions noted are these: heading: functional pKi; human EP3, CHO-K1 cells, PGE2-induced calcium mobilisation; averages of a number of experiments. The protocol:
(§1) Briefly, the antagonist properties of compounds are assessed by their ability to inhibit the mobilisation of intracellular calcium ([Ca^2+]i) in response to activation of EP1 or EP3 receptors by the natural agonist hormone prostaglandin E2 (PGE2). Increasing concentrations of antagonist reduce the amount of calcium that a given concentration of PGE2 can mobilise. The net effect is to displace the PGE2 concentration-effect curve to higher concentrations of PGE2. The amount of calcium produced is assessed using a calcium-sensitive fluorescent dye such as Fluo-4, AM and a suitable instrument such as a Fluorimetric Imaging Plate Reader (FLIPR). Increasing amounts of [Ca^2+]i produced by receptor activation increase the amount of fluorescence produced by the dye and give rise to an increasing signal. The signal may be detected using the FLIPR instrument and the data generated may be analysed with suitable curve-fitting software.
(§2) The human EP1 or EP3 calcium mobilisation assay (hereafter referred to as ‘the calcium assay’) utilises Chinese hamster ovary-K1 (CHO-K1) cells into which a stable (pCIN; BioTechniques 20 (1996): 102-110) vector containing either EP1 or EP3 cDNA has previously been transfected. Cells are cultured in suitable flasks containing culture medium such as DMEM:F-12 supplemented with 10% v/v foetal calf serum, 2 mM L-glutamine, 0.25 mg/ml geneticin, 100 μM flurbiprofen and 10 μg/ml puromycin.
(§3) For assay, cells are harvested using a proprietary reagent that dislodges cells such as Versene. Cells are re-suspended in a suitable quantity of fresh culture media for introduction into a 384-well plate. Following incubation for 24 hours at 37° C. the culture media is replaced with a medium containing Fluo-4 and the detergent pluronic acid, and a further incubation takes place. Concentrations of compounds are then added to the plate in order to construct concentration-effect curves. This may be performed on the FLIPR in order to assess the agonist properties of the compounds. Concentrations of PGE2 are then added to the plate in order to assess the antagonist properties of the compounds.
(§4) The data so generated may be analysed by means of a computerised curve-fitting routine. The concentration of compound that elicits a half-maximal inhibition of the calcium mobilisation induced by PGE2 (pIC50) may then be estimated.
On the technique in general: Calcium assays in cells follow changes in intracellular calcium, usually with a dye or a luminescent sensor.

The target of experiment [1] is T2, human EP1 receptor (Homo sapiens, UniProt P34995).
T2 construct: expressed in transfected cells; host or cells: CHO-K1
T2 sequence (P34995 1-402): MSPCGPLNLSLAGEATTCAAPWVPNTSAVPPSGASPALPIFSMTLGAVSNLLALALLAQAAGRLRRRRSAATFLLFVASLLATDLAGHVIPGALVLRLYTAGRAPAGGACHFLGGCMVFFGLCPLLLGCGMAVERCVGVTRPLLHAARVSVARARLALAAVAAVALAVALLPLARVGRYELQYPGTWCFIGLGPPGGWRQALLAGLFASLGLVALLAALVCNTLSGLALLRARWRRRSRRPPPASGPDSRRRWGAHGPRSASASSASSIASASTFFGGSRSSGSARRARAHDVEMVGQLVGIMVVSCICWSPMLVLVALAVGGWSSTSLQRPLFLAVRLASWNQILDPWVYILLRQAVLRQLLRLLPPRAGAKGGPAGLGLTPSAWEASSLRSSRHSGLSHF
The experiment is described as follows: Binding assay for the human prostanoid EP1 receptor (competition with [3H]-PGE2). The conditions noted are these: binding to human EP1 receptor, CHO-K1 membranes, [3H]-PGE2 3 nM; averages of a number of experiments. The protocol:
Competition assay using [^3H]-PGE2.
Compound potencies are determined using a radioligand binding assay. In this assay compound potencies are determined from their ability to compete with tritiated prostaglandin E2 ([^3H]-PGE2) for binding to the human EP1 receptor. This assay utilises Chinese hamster ovary-K1 (CHO-K1) cells into which a stable vector containing the EP1 cDNA has previously been transfected. Cells are cultured in suitable flasks containing culture medium such as DMEM:F-12 supplemented with 10% v/v foetal calf serum, 2 mM L-glutamine, 0.25 mg/ml geneticin, 10 μg/ml puromycin and 10 μM indomethacin.
Cells are detached from the culture flasks by incubation in calcium and magnesium free phosphate buffered saline containing 1 mM disodium ethylenediaminetetraacetic acid (Na2EDTA) and 10 μM indomethacin for 5 min. The cells are isolated by centrifugation at 250×g for 5 mins and suspended in an ice cold buffer such as 50 mM Tris, 1 mM Na2EDTA, 140 mM NaCl, 10 μM indomethacin (pH 7.4). The cells are homogenised using a Polytron tissue disrupter (2×10 s burst at full setting), centrifuged at 48,000×g for 20 mins and the pellet containing the membrane fraction is washed (optional) three times by suspension and centrifugation at 48,000×g for 20 mins. The final membrane pellet is suspended in an assay buffer such as 10 mM 2-[N-morpholino]ethanesulphonic acid, 1 mM Na2EDTA, 10 mM MgCl2 (pH 6). Aliquots are frozen at −80° C. until required.
For the binding assay the cell membranes, competing compounds and [^3H]-PGE2 (3 nM final assay concentration) are incubated in a final volume of 100 μl for 30 min at 30° C. All reagents are prepared in assay buffer. Reactions are terminated by rapid vacuum filtration over GF/B filters using a Brandell cell harvester. The filters are washed with ice cold assay buffer, dried and the radioactivity retained on the filters is measured by liquid scintillation counting in Packard TopCount scintillation counter.
The data are analysed using non linear curve fitting techniques to determine the concentration of compound producing 50% inhibition of specific binding (IC50).

Experiment [2] concerns rodent model of post-operative pain. The conditions noted are these: Anesthesia and Analgesia 2001, 92, 233-238; cited from earlier work.
Experiment [3] deals with rat model of chronic constriction injury. As to conditions: Anesthesia and Analgesia 2001, 93, 1012-7; cited from earlier work.
The target of experiment [4] is T2, human EP1 receptor. The experiment can be described thus: human EP1 calcium mobilisation assay. The format is cell-based. As to conditions: human EP1, CHO-K1 cells, PGE2-induced calcium mobilisation; averages of a number of experiments; read-out: functional pKi (converted). The protocol:
as §1, §2, §3, §4

With `CC(C)Cc1cn(-c2nc(-c3nc4cc(CO)ccc4[nH]3)cs2)c2cc(Cl)ccc12` [Example 45, (2-{2-[6-Chloro-3-isobutyl-1H-indol-1-yl]-1,3-thiazol-4-yl}-1H-benzimidazol-5-yl)methanol hydrochloride], on human EP3 receptor, the pKi was less than 5.50. This compound also had a pIC50 at human EP1 receptor [1] not below 7.00.
On to `CC(C)Cc1cn(-c2nc(C(=O)Nc3ccncc3)cs2)c2cc(Cl)ccc12` [Example 25, 2-[6-Chloro-3-isobutyl-1H-indol-1-yl]-N-4-pyridinyl-1,3-thiazole-4-carboxamide], for which the negative logarithm of the Ki (pKi) on human EP3 receptor is less than 5.50.
Still for that read-out and setting: the figure for `CC(C)Cc1cn(-c2nc(-c3nnc[nH]3)cs2)c2cc(Cl)ccc12` [Example 54, 3-[2-(6-Chloro-3-isobutyl-1H-indol-1-yl)-1,3-thiazol-4-yl]-4H-1,2,4-triazole] is less than 5.50; for `CCCNC(=O)Nc1csc(-n2cc(CC(C)C)c3ccc(Cl)cc32)n1` [Example 10, N-[2-(6-Chloro-3-isobutyl-1H-indol-1-yl)-1,3-thiazol-4-yl]-N′-propylurea] it is less than 5.50.
As to `Cc1cc(Cl)ccc1S(=O)(=O)NC[C@H]1C2CCC(CC2)[C@@H]1/C=C\CCCC(=O)O` [ONO-8711], the mechanical hyperalgesia result in experiment [2] is listed as “inhibits mechanical hyperalgesia”. Moreover, the hyperalgesia and allodynia result in experiment [3] was “reduces hyperalgesia and allodynia”.
As for `CC(C)Cc1cn(-c2nc(NC(=O)c3cccnc3)cs2)c2cc(Cl)ccc12` [Example 6, N-[2-(6-Chloro-3-isobutyl-1H-indol-1-yl)-1,3-thiazol-4-yl]nicotinamide], the negative-log Ki (pKi) at human EP3 receptor is less than 5.50.
Take `CC(C)Cc1cn(-c2nc(C(=O)Nc3c(F)cccc3F)cs2)c2cc(Cl)ccc12` [Example 33, 2-[6-Chloro-3-isobutyl-1H-indol-1-yl]-N-(2,6-difluorophenyl)-1,3-thiazole-4-carboxamide]: on human EP3 receptor, the pKi was less than 5.50. Moreover, on human EP1 receptor [4], the Ki was not above 0.1 µM. Besides, at human EP1 receptor [1], the pIC50 was not below 7.00.
With `CC(C)Cc1cn(-c2nc(NC(=O)c3ccc(CO)cc3)cs2)c2cc(Cl)ccc12` [Example 9, N-[2-(6-Chloro-3-isobutyl-1H-indol-1-yl)-1,3-thiazol-4-yl]-4-(hydroxymethyl)benzamide], the pKi on human EP3 receptor is less than 5.50.
Turning to `CC(C)Cc1cn(-c2nc(-c3nc4c(CO)cccc4[nH]3)cs2)c2cc(Cl)ccc12` [Example 46, (2-{2-[6-Chloro-3-isobutyl-1H-indol-1-yl]-1,3-thiazol-4-yl}-1H-benzimidazol-4-yl)methanol], the pKi at human EP3 receptor is less than 5.50. Moreover, the Ki on human EP1 receptor [4] was not above 0.1 µM.
Take `CC(C)Cc1cn(-c2nc(-c3nc4cnccc4[nH]3)cs2)c2cc(Cl)ccc12` [Example 43, 2-{2-[6-Chloro-3-isobutyl-1H-indol-1-yl]-1,3-thiazol-4-yl}-1H-imidazo[4,5-c]pyridine hydrochloride]: the Ki on human EP1 receptor [4] is not above 0.1 µM. Also, the pIC50 on human EP1 receptor [1] was not below 7.00.
In the case of `Cc1nnc(-c2csc(-n3cc(CC(C)C)c4ccc(Cl)cc43)n2)[nH]1` [Example 55, 3-[2-(6-Chloro-3-isobutyl-1H-indol-1-yl)-1,3-thiazol-4-yl]-5-methyl-4H-1,2,4-triazole], the pKi at human EP3 receptor was less than 5.50. The pIC50 at human EP1 receptor [1] was not below 7.00.
The matching figures for `CC(C)Cc1cn(-c2nc(-c3nc4ccccc4[nH]3)co2)c2cc(Cl)ccc12` [Example 36, 2-{2-[6-Chloro-3-isobutyl-1H-indol-1-yl]-1,3-oxazol-4-yl}-1H-benzimidazole hydrochloride]: less than 5.50 and not below 7.00.
Regarding `CC(=O)OCc1ccc(C(=O)Nc2csc(-n3cc(CC(C)C)c4ccc(Cl)cc43)n2)cc1` [Example 56, {4-[({2-[6-Chloro-3-(2-methylpropyl)-1H-indol-1-yl]-1,3-thiazol-4-yl}amino)carbonyl]phenyl}methyl acetate], at human EP3 receptor, the pKi is less than 5.50.
